How the values were obtained:
[1] = test system: winter wheat (Vershin variety); test: Winter wheat seed treatment with BHMPA salts: germination energy and germination rate; format: in vivo
Procedure: Control—Soaking Seeds in Water;
(§1) Experimental versions—soaking seeds in BHMPA solutions and solutions of BHMPA Ca, Mg, Na, Co, Mn, Cu, and Zn salts at 1·10^−6-1·10^−12% concentrations (doses). The studies were conducted in laboratory in Petri dishes; seed bed—two layers of filter paper. 50 seeds soaked in water (control) and in the solutions of the tested compounds (experimental) were placed into each dish. Wheat, corn, and rice seeds were exposed for one hour.
Analysis was conducted according to the government standards GOST 12038-84 “Crop seeds. Technical conditions for determining the germination energy and germination rate”, GOST 12044-93 “Crop seeds. Methods for determining disease contamination.”
(§2) Seed germination energy and rate were calculated in percent as an arithmetic mean of the four experimental results (germination energy on the 4th day, wheat germination on the 8th day, rice and corn germination—on the 7th day). Germination was determined based on the germinating power indicators (length of the roots and sprouts and their wet and dry mass per 100 shoots).
(§3) The effect of pre-sowing seed treatment with the claimed BHMPA salts of biogenic metals was studied on winter wheat (Vershin variety), corn (Krasnodar 385 MV variety), and rice (Diamant variety).

[2] = test system: corn (Krasnodar 385 MV variety); test: Corn seed treatment with BHMPA salts: germinating power; format: in vivo; settings: for Length, root / Length, root, + % to control / Length, sprout / Length, sprout, + % to control / Mass, dry, root / Mass, dry, root, + % to control / Mass, dry, sprout / Mass, dry, sprout, + % to control / Mass, wet, root / Mass, wet, root, + % to control / Mass, wet, sprout / Mass, wet, sprout, + % to control: corn seeds, cobalt salt of BHMPA
Procedure: as §1, §2, §3
The above data describe the seed viability only at the initial stage of germination, while the germination ability at the later stage of germination is defined by the initial germinating power. The method for the determination of the germinating power comprises measuring the height of the sprouts and primary roots, as well as the biomass and the dry mass thereof per 100 seedlings. [M. A. Kartuzova. Initial Germinating Power as Method of Biological Assessment of Seed Quality. Selection and Seed Farming, #2, 1953].

[3] = winter wheat Vershin, 1·10^−6% solution
[4] = winter wheat Vershin, 1·10^−7% solution
[5] = winter wheat Vershin, 1·10^−8% solution
[6] = winter wheat Vershin, 1·10^−9% solution
[7] = winter wheat Vershin, 1·10^−10% solution
[8] = winter wheat Vershin, 1·10^−11% solution
[9] = winter wheat Vershin, 1·10^−12% solution
[10] = winter wheat, comparative study vs Melaphen, 1·10^−10% solution
[11] = solution concentration 1 · 10^−6%
[12] = solution concentration 1 · 10^−7%
[13] = solution concentration 1 · 10^−8%
[14] = solution concentration 1 · 10^−9%

## O.O.O=P([O-])(CO)CO.O=P([O-])(CO)CO.[Co+2] [Co-salt, Cobalt BHMPA Salt]
[1]; [3]
  Germination energy: 89.2%
  Germination rate: 93.0%
[1]; [4]
  Germination energy: 91.4%
  Germination rate: 94.0%
[1]; [5]
  Germination energy: 92.8%
  Germination rate: 96.0%
[1]; [6]
  Germination energy: 94.3%
  Germination rate: 97.3%
[1]; [7]
  Germination energy: 95.6%
  Germination rate: 98.7%
[1]; [8]
  Germination energy: 94.7%
  Germination rate: 97.3%
[1]; [9]
  Germination energy: 92.0%
  Germination rate: 94.7%
[1]; [10]
  Germination energy: 93.7%
  Germination rate: 97.3%
[2]; corn
  optimum concentration for treating corn seeds before sowing: 1·10^−7%
[2]; [11]
  Length, root: 5.0 cm
  Length, root, + % to control: 6%
  Length, sprout: 3.2 cm
  Length, sprout, + % to control: 7%
  Mass, dry, root: 1.31 g/100 plantlings
  Mass, dry, root, + % to control: 5%
  Mass, dry, sprout: 1.09 g/100 plantlings
  Mass, dry, sprout, + % to control: 12%
  Mass, wet, root: 9.76 g/100 plantlings
  Mass, wet, root, + % to control: 9%
  Mass, wet, sprout: 7.75 g/100 plantlings
  Mass, wet, sprout, + % to control: 24.5%
[2]; [12]
  Length, root: 6.2 cm
  Length, root, + % to control: 32%
  Length, sprout: 3.8 cm
  Length, sprout, + % to control: 27%
  Mass, dry, root: 1.44 g/100 plantlings
  Mass, dry, sprout: 1.21 g/100 plantlings
  Mass, dry, sprout, + % to control: 25%
  Mass, wet, root: 10.77 g/100 plantlings
  Mass, wet, root, + % to control: 20%
  Mass, wet, sprout: 9.96 g/100 plantlings
  Mass, wet, sprout, + % to control: 60%
[2]; [13]
  Length, root: 5.6 cm
  Length, root, + % to control: 19%
  Length, sprout: 3.6 cm
  Length, sprout, + % to control: 20%
  Mass, dry, root: 1.37 g/100 plantlings
  Mass, dry, root, + % to control: 10%
  Mass, dry, sprout: 1.14 g/100 plantlings
  Mass, dry, sprout, + % to control: 17.5%
  Mass, wet, root: 10.17 g/100 plantlings
  Mass, wet, root, + % to control: 13%
  Mass, wet, sprout: 9.00 g/100 plantlings
  Mass, wet, sprout, + % to control: 45%
[2]; [14]
  Length, root: 5.0 cm
  Length, root, + % to control: 6%
  Length, sprout: 3.5 cm
  Length, sprout, + % to control: 17%
  Mass, dry, root: 1.31 g/100 plantlings
  Mass, dry, root, + % to control: 5%
  Mass, dry, sprout: 1.07 g/100 plantlings
  Mass, dry, sprout, + % to control: 10%
  Mass, wet, root: 10.00 g/100 plantlings
  Mass, wet, root, + % to control: 11%
